{"source": "paper PMC8038955", "about": "“Antimicrobial D-amino acid oxidase-derived peptides specify gut microbiota” (Cellular and Molecular Life Sciences: CMLS, 2021)", "key": {"[1]": {"system": "L. casei ATCC 393", "test": "Lactobacilli susceptibility, broth microdilution (ISO 10932/IDF 233)", "assay_type": "cell-based, Lactobacillus casei", "conditions": "Lacticaseibacillus casei", "protocol": "(§1) To assess the effect of antibacterial peptides on lactobacilli, Lactobacillus acidophilus ATCC 4356, Lactobacillus casei ATCC 393, Lactobacillus fermentum ATCC 14931, and Lactobacillus rhamnosus ATCC 7469 strains (from American Type Culture Collection) were used. Before performing the test, cultures were streaked on Lactobacilli MRS agar (MRS) and incubated for 24 h at 37 °C in an anaerobic chamber (BD Difco, Detroit, MI, USA). Antibacterial susceptibility testing was performed according to the ISO 10932/IDF 233 standard (ISO, 2010). […] Typically, a twofold serial dilution of stock solutions was performed in Lactobacilli MRS broth to obtain solutions in the 0.2–100 µM concentration range. Bacterial inocula were prepared by suspending colonies, from 24 h incubated Lactobacilli MRS agar plates, into 2 mL of 0.85% NaCl solution. […] MIC values were estimated after incubating the plates under anaerobic conditions at 37 °C for 48 h."}, "[2]": {"system": "L. acidophilus ATCC 4356", "test": "Lactobacilli susceptibility, broth microdilution (ISO 10932/IDF 233)", "assay_type": "cell-based", "conditions": "Lactobacillus acidophilus", "protocol": "as §1"}, "[3]": {"system": "L. fermentum ATCC 14931", "test": "Lactobacilli susceptibility, broth microdilution (ISO 10932/IDF 233)", "assay_type": "cell-based, Lactobacillus fermentum", "conditions": "Limosilactobacillus fermentum", "protocol": "as §1"}, "[4]": {"system": "L. rhamnosus ATCC 7469", "test": "Lactobacilli susceptibility, broth microdilution (ISO 10932/IDF 233)", "assay_type": "cell-based, Lactobacillus rhamnosus", "conditions": "Lacticaseibacillus rhamnosus", "protocol": "as §1"}, "[5]": {"system": "Escherichia coli ATCC 25922", "assay_type": "cell-based", "protocol": "(§2) MIC (Minimum Inhibitory Concentration) analyses were performed on Gram-positive and Gram-negative bacteria by a broth microdilution method previously described, with minor modifications. In details, assays were carried out in Nutrient Broth 0.5× (Difco, Detroit, MI, USA) using sterile 96-well polypropylene microtiter plates (cat. 3879, Costar Corp., Cambridge, MA, USA). Bacterial strains were grown in Luria–Bertani (LB) medium overnight at 37 °C and then diluted in nutrient broth at a final concentration of ~ 5 × 10^5 CFU/mL per well. […] Peptide concentrations were determined by spectrophotometric analysis using the extinction coefficients calculated by the ProtParam tool (http://web.expasy.org/protparam/). Twofold serial dilutions of peptides were carried out in the test wells (0.2–100 μM concentration range). Plates were incubated overnight at 37 °C. MIC value was taken as the lowest concentration at which growth was inhibited. Three independent experiments were performed for each MIC value. The peptide antibiotic polymyxin B and vancomycin (Sigma, St. Louis, MO) were tested as control. MIC values were measured on: Pseudomonas aeruginosa PAO1, Acinetobacter baumanii ATCC 17878, Escherichia coli ATCC 25922, Salmonella typhimurium ATCC 14028, Salmonella enteritidis 706 RIVM (kindly provided by Prof. E. Veldhuizen, Utrecht University, Holland), Staphylococcus aureus ATCC 6538P, and Enterococcus faecalis ATCC 29212."}, "[6]": {"system": "Salmonella typhimurium ATCC 14028", "assay_type": "cell-based", "protocol": "as §2"}, "[7]": {"system": "Pseudomonas aeruginosa PAO1", "assay_type": "cell-based", "conditions": "control antibiotic; broth microdilution, Nutrient Broth 0.5×, overnight 37 °C", "protocol": "as §2"}, "[8]": {"system": "Salmonella enteritidis 706 RIVM", "assay_type": "cell-based", "conditions": "control antibiotic; broth microdilution, Nutrient Broth 0.5×, overnight 37 °C", "protocol": "as §2"}, "[9]": {"system": "Acinetobacter baumanii ATCC 17878", "assay_type": "cell-based", "conditions": "control antibiotic; broth microdilution, Nutrient Broth 0.5×, overnight 37 °C", "protocol": "as §2"}, "[10]": {"system": "Enterococcus faecalis ATCC 29212", "test": "microbe, parasite or virus in culture", "assay_type": "cell-based", "protocol": "as §2"}, "[11]": {"system": "selected Gram-positive and Gram-negative strains", "test": "Antimicrobial activity of mucosal peptides on selected strains", "assay_type": "cell-based", "conditions": "summary of Table 3", "protocol": "as §2, with “The peptide antibiotic polymyxin B and vancomycin (Sigma, St. Louis, MO) were tested as control.” left out"}, "[12]": {"system": "Escherichia coli ATCC 25922", "assay_type": "cell-based", "protocol": "The Minimum Bactericidal Concentration (MBC) was determined from the broth dilution of MIC tests by subculturing cell mixtures on agar plates. The MBC was defined as the lowest concentration of antibacterial agent that kills ≥ 99.9% of bacterial cells. According to a widely accepted criterion, peptides were considered bactericidal if their MBC was no more than four times the MIC.", "remark": "listed apart in the source"}, "[13]": {"conditions": "control antibiotic, broth microdilution, Nutrient Broth 0.5×, overnight 37 °C"}}, "note": "Where two headings read alike, the source gives them in different places. Where a SMILES comes first, the peptide text is derived from it. Bridges are numbered along the chain shown (N, C = ends). Where no end group is shown, it is not given here. [ ]: non-standard residue; d: D form. The star is where a group is joined. X1 = CC[C@H](C)CCCCC(=O)*; Dab = NCC[C@H](N)C(=O)O"}
{"molecule": "CC[C@H]1OC(=O)[C@H](C)[C@@H](O[C@H]2C[C@@](C)(OC)[C@@H](O)[C@H](C)O2)[C@H](C)[C@@H](O[C@@H]2O[C@H](C)C[C@H](N(C)C)[C@H]2O)[C@](C)(O)C[C@@H](C)C(=O)[C@H](C)[C@@H](O)[C@]1(C)O", "note": "[Erythromycin]", "values": [{"measurement": "MIC", "setting": "[1]; ATCC393, Lactobacilli MRS broth, 3–8 × 10^5 CFU/mL, anaerobic, 37 °C, 48 h, 0.2–100 µM range, read-out: MIC", "result": 2.8, "unit": "µM"}, {"measurement": "MIC", "setting": "[2]; ATCC4356, Lactobacilli MRS broth, 3–8 × 10^5 CFU/mL, anaerobic, 37 °C, 48 h, 0.2–100 µM range, read-out: MIC", "result": 0.7, "unit": "µM"}, {"measurement": "MIC", "setting": "[3]; ATCC14931, Lactobacilli MRS broth, 3–8 × 10^5 CFU/mL, anaerobic, 37 °C, 48 h, 0.2–100 µM range, read-out: MIC", "result": 1.4, "unit": "µM"}, {"measurement": "MIC", "setting": "[4]; ATCC7469, Lactobacilli MRS broth, 3–8 × 10^5 CFU/mL, anaerobic, 37 °C, 48 h, 0.2–100 µM range, read-out: MIC", "result": 0.7, "unit": "µM"}]}
{"molecule": "CC[C@H](C)CCCCC(=O)N[C@@H](CCN)C(=O)N[C@H](C(=O)N[C@@H](CCN)C(=O)N[C@H]1CCNC(=O)[C@H]([C@@H](C)O)NC(=O)[C@H](CCN)NC(=O)[C@H](CCN)NC(=O)[C@H](CC(C)C)NC(=O)[C@@H](Cc2ccccc2)NC(=O)[C@H](CCN)NC1=O)[C@@H](C)O", "note": "[Polymyxin B, polymyxin B] (X1-[Dab]T[Dab][Dab][Dab][dF]L[Dab][Dab]T; lactam 4-C (inferred); N-terminus assumed)", "values": [{"measurement": "MIC", "setting": "[5]; [13]", "result": 0.5, "unit": "µg/mL"}, {"measurement": "MIC", "setting": "[6]; [13]", "result": 0.12, "unit": "µg/mL"}, {"measurement": "MIC", "setting": "[7]", "result": 0.25, "unit": "µg/mL"}, {"measurement": "MIC", "setting": "[8]", "result": 0.5, "unit": "µg/mL"}, {"measurement": "MIC", "setting": "[9]", "result": 0.5, "unit": "µg/mL"}]}
{"molecule": "CN[C@H](CC(C)C)C(=O)N[C@H]1C(=O)N[C@@H](CC(N)=O)C(=O)N[C@H]2C(=O)N[C@H]3C(=O)N[C@H](C(=O)N[C@H](C(=O)O)c4cc(O)cc(O)c4-c4cc3ccc4O)[C@H](O)c3ccc(c(Cl)c3)Oc3cc2cc(c3O[C@@H]2O[C@H](CO)[C@@H](O)[C@H](O)[C@H]2O[C@H]2C[C@](C)(N)[C@H](O)[C@H](C)O2)Oc2ccc(cc2Cl)[C@H]1O", "note": "[Vancomycin, vancomycin]", "values": [{"measurement": "MIC", "setting": "[1]; ATCC393, 48 h", "result": "> 100", "unit": "µM"}, {"measurement": "MIC", "setting": "[2]; ATCC4356, 48 h", "result": "> 100", "unit": "µM"}, {"measurement": "MIC", "setting": "[10]; Enterococcus faecalis, ATCC29212", "result": 2, "unit": "µg/mL"}, {"measurement": "MIC", "setting": "[3]; ATCC14931, 48 h", "result": "> 100", "unit": "µM"}, {"measurement": "MIC", "setting": "[4]; ATCC7469, 48 h", "result": "> 100", "unit": "µM"}]}
{"molecule": "EAANLFGKILEEKKLSRLPPSHL [EAA]", "values": [{"measurement": "MIC", "setting": "[10]; ATCC 29212", "result": "> 200", "unit": "µM"}, {"measurement": "MIC", "setting": "[6]; ATCC 14028", "result": "> 200", "unit": "µM"}, {"measurement": "antibacterial activity (in words)", "setting": "[11]", "result": "did not show any antibacterial activity"}]}
{"molecule": "LKNARIVGELTGFRPVRPQVRLE [LKN]", "values": [{"measurement": "MBC", "setting": "[12]", "result": 50, "unit": "µM"}, {"measurement": "MIC", "setting": "[10]; ATCC 29212", "result": "> 200", "unit": "µM"}, {"measurement": "MIC", "setting": "[5]; ATCC 25922", "result": 50, "unit": "µM"}, {"measurement": "MIC", "setting": "[6]; ATCC 14028", "result": "> 200", "unit": "µM"}]}
